Measured values taken from patent US10913727B2, “Modulators of the integrated stress pathway” (Calico Life Sciences LLC, priority 2016, dated 2021).

test system: HEK293T cells carrying the ATF4 luciferase reporter; test: ATF4-Luc assay, in vitro model of Vanishing Cell White Matter Disease (VWMD); type: cell-based; settings: Homo sapiens, HEK-293T, 1 μg/mL tunicamycin, 7 hours, One Glo luminescence
Summary of the method: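 Reporter cells were stably generated by retroviral transduction and puromycin selection, then seeded at 30,000 cells/well. Next day, cells received 1 μg/mL tunicamycin with 200 nM test compound for 7 h, and luciferase luminescence was read with a one-step reagent. Values reported as EC50.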

Row | Compound | EC50 [nM]
1 | O=C(COc1ccc(Cl)c(F)c1)NC12CCC(NC(=O)c3ccc(OC(F)(F)F)nc3)(CC1)CC2O (stereo not drawn) [Compound 451, N-{4-[2-(4-chloro-3-fluorophenoxy)acetamido]-3-hydroxybicyclo[2.2.2]octan-1-yl}-6-(trifluoromethoxy)pyridine-3-carboxamide] | < 50
2 | O=C(COc1ccc(Cl)c(F)c1)NC12CC(Nc3ccc(C(F)(F)F)nn3)(C1)C2 [Compound 127, 2-(4-chloro-3-fluorophenoxy)-N-(3-{[6-(trifluoromethyl)pyridazin-3-yl]amino}bicyclo[1.1.1]pentan-1-yl)acetamide] | > 2000
3 | O=C(COc1ccc(Cl)c(F)c1)NC12CC(NC(=O)c3cc(N4CCCC4)ccn3)(C1)C2 [Compound 181, N-{3-[2-(4-chloro-3-fluorophenoxy)acetamido]bicyclo[1.1.1]pentan-1-yl}-4-(pyrrolidin-1-yl)pyridine-2-carboxamide] | 250 to 1000
4 | O=C(COc1ccc(Cl)c(F)c1)NC12CC(NC(=O)c3cnc(-c4ccccc4)o3)(C1)C2 [Compound 344, N-{3-[2-(4-chloro-3-fluorophenoxy)acetamido]bicyclo[1.1.1]pentan-1-yl}-2-phenyl-1,3-oxazole-5-carboxamide] | < 50
5 | Cc1ccc(C(=O)NC23CCC(NC(=O)COc4ccc(Cl)c(F)c4)(CC2)C(O)C3)s1 (stereo not drawn) [Compound 621, N-{4-[2-(4-chloro-3-fluorophenoxy)acetamido]-3-hydroxybicyclo[2.2.2]octan-1-yl}-5-methylthiophene-2-carboxamide] | 50 to 250
6 | Cn1nc(C(=O)NC23CC(NC(=O)COc4ccc(Cl)c(F)c4)(C2)C3)c2c1CCC2 [Compound 877, N-{3-[2-(4-chloro-3-fluorophenoxy)acetamido]bicyclo[1.1.1]pentan-1-yl}-1-methyl-1,4,5,6-tetrahydrocyclopenta[c]pyrazole-3-carboxamide] | > 2000
7 | Cc1ocnc1C(=O)NC12CC(NC(=O)COc3ccc(Cl)c(F)c3)(C1)C2 [Compound 909, N-{3-[2-(4-chloro-3-fluorophenoxy)acetamido]bicyclo[1.1.1]pentan-1-yl}-5-methyl-1,3-oxazole-4-carboxamide] | > 2000
8 | O=C(COc1ccc(Cl)c(F)c1)NC12CCC(NC(=O)c3cnc(C(F)F)cn3)(C1)C2 [Compound 296, N-{4-[2-(4-chloro-3-fluorophenoxy)acetamido]bicyclo[2.1.1]hexan-1-yl}-5-(difluoromethyl)pyrazine-2-carboxamide] | 50 to 250
9 | Cn1cc(Cl)c(C(=O)NC23CC(NC(=O)COc4ccc(Cl)c(F)c4)(C2)C3)n1 [Compound 871, 4-chloro-N-{3-[2-(4-chloro-3-fluorophenoxy)acetamido]bicyclo[1.1.1]pentan-1-yl}-1-methyl-1H-pyrazole-3-carboxamide] | 250 to 1000
10 | O=C(COc1ccc(Cl)c(F)c1)NC12CC(NC(=O)c3ccc(OCCO)nc3)(C1)C2 [Compound 161, N-{3-[2-(4-chloro-3-fluorophenoxy)acetamido]bicyclo[1.1.1]pentan-1-yl}-6-(2-hydroxyethoxy)pyridine-3-carboxamide] | 1000 to 2000
11 | Cc1ncc(C(=O)NC23CC(NC(=O)COc4ccc(Cl)c(F)c4)(C2)C3)nc1C [Compound 196, N-{3-[2-(4-chloro-3-fluorophenoxy)acetamido]bicyclo[1.1.1]pentan-1-yl}-5,6-dimethylpyrazine-2-carboxamide] | 250 to 1000
12 | O=C(COc1ccc(Cl)c(F)c1)NC12CCC(NC(=O)c3cccc(CO)n3)(CC1)CC2O (stereo not drawn) [Compound 945, N-{4-[2-(4-chloro-3-fluorophenoxy)acetamido]-3-hydroxybicyclo[2.2.2]octan-1-yl}-6-(hydroxymethyl)pyridine-2-carboxamide] | > 2000
13 | O=C(COc1ccc(Cl)c(F)c1)NC12CCC(NC(=O)c3cnc(C(F)F)cn3)(CC1)[C@@H](O)C2 (single isomer, unassigned) [Compound 236] | < 50
14 | CC(=O)Nc1ccc(F)cc1C(=O)NC12CC(NC(=O)COc3ccc(Cl)c(F)c3)(C1)C2 [Compound 765, 2-acetamido-N-{3-[2-(4-chloro-3-fluorophenoxy)acetamido]bicyclo[1.1.1]pentan-1-yl}-5-fluorobenzamide] | 50 to 250
15 | Cn1nc(C(=O)NC23CC(NC(=O)COc4ccc(Cl)c(F)c4)(C2)C3)cc1C(F)(F)F [Compound 789, N-{3-[2-(4-chloro-3-fluorophenoxy)acetamido]bicyclo[1.1.1]pentan-1-yl}-1-methyl-5-(trifluoromethyl)-1H-pyrazole-3-carboxamide] | 50 to 250
16 | Cc1cc(C(=O)NC23CCC(NC(=O)COc4ccc(Cl)c(F)c4)(CC2)C(O)C3)n(C)n1 (stereo not drawn) [Compound 447, N-{4-[2-(4-chloro-3-fluorophenoxy)acetamido]-3-hydroxybicyclo[2.2.2]octan-1-yl}-1,3-dimethyl-1H-pyrazole-5-carboxamide] | 50 to 250
17 | O=C(COc1ccc(Cl)c(F)c1)NC12CC(NC(=O)c3cnc(C(F)F)cn3)(C1)C2 [Compound 134, N-{3-[2-(4-chloro-3-fluorophenoxy)acetamido]bicyclo[1.1.1]pentan-1-yl}-5-(difluoromethyl)pyrazine-2-carboxamide] | < 50

Row | Compound | EC50 [nM]
18 | O=C(COc1ccc(Cl)c(F)c1)NC12CC(NC(=O)c3ccn[nH]3)(C1)C2 [Compound 320, N-{3-[2-(4-chloro-3-fluorophenoxy)acetamido]bicyclo[1.1.1]pentan-1-yl}-1H-pyrazole-5-carboxamide] | 1000 to 2000
19 | O=C(COc1ccc(Cl)c(F)c1)NC12CC(NC(=O)c3cnc4ncccc4n3)(C1)C2 [Compound 864, N-{3-[2-(4-chloro-3-fluorophenoxy)acetamido]bicyclo[1.1.1]pentan-1-yl}pyrido[2,3-b]pyrazine-2-carboxamide] | > 2000
20 | NS(=O)(=O)c1ccc(C(=O)NC23CC(NC(=O)COc4ccc(Cl)c(F)c4)(C2)C3)o1 [Compound 905, N-{3-[2-(4-chloro-3-fluorophenoxy)acetamido]bicyclo[1.1.1]pentan-1-yl}-5-sulfamoylfuran-2-carboxamide] | > 2000
21 | Cn1nc(C(=O)NC23CC(NC(=O)COc4ccc(Cl)c(F)c4)(C2)C3)cc1-c1ccccc1 [Compound 345, N-{3-[2-(4-chloro-3-fluorophenoxy)acetamido]bicyclo[1.1.1]pentan-1-yl}-1-methyl-5-phenyl-1H-pyrazole-3-carboxamide] | 50 to 250
22 | O=C(COc1ccc(Cl)c(F)c1)NC12CCC(NC(=O)c3ccc(C(F)F)cn3)(CC1)C[C@@H]2O [Compound 752, N-{(3S)-4-[2-(4-chloro-3-fluorophenoxy)acetamido]-3-hydroxybicyclo[2.2.2]octan-1-yl}-5-(difluoromethyl)pyridine-2-carboxamide] | < 50
23 | O=C(COc1ccc2c(c1)OC(F)(F)O2)NC12CC(NC(=O)c3ccncc3)(C1)C2 [Compound 418, N-(3-{2-[(2,2-difluoro-2H-1,3-benzodioxol-5-yl)oxy]acetamido}bicyclo[1.1.1]pentan-1-yl)pyridine-4-carboxamide] | > 2000
24 | Cc1nc(C(=O)NC23CC(NC(=O)COc4ccc(Cl)c(Cl)c4)(C2)C3)cs1 [Compound 559, N-{3-[2-(3,4-dichlorophenoxy)acetamido]bicyclo[1.1.1]pentan-1-yl}-2-methyl-1,3-thiazole-4-carboxamide] | < 50
25 | O=C(COc1ccc(Cl)c(F)c1)NC12CCC(NC(=O)c3cc(CO)ccn3)(CC1)C[C@@H]2O [Compound 680, N-{(3S)-4-[2-(4-chloro-3-fluorophenoxy)acetamido]-3-hydroxybicyclo[2.2.2]octan-1-yl}-4-(hydroxymethyl)pyridine-2-carboxamide] | < 50
26 | Cc1ncc(C(=O)NC23CC(NC(=O)COc4ccc(Cl)c(F)c4)(C2)C3)s1 [Compound 285, N-{3-[2-(4-chloro-3-fluorophenoxy)acetamido]bicyclo[1.1.1]pentan-1-yl}-2-methyl-1,3-thiazole-5-carboxamide] | 50 to 250
27 | O=C(COc1ccc(Cl)c(F)c1)NC12CC(NC(=O)c3cc(CCO)ccn3)(C1)C2 [Compound 282, N-{3-[2-(4-chloro-3-fluorophenoxy)acetamido]bicyclo[1.1.1]pentan-1-yl}-4-(2-hydroxyethyl)pyridine-2-carboxamide] | 250 to 1000
28 | Cc1ccncc1C(=O)NC12CC(NC(=O)COc3ccc(Cl)c(F)c3)(C1)C2 [Compound 738, N-{3-[2-(4-chloro-3-fluorophenoxy)acetamido]bicyclo[1.1.1]pentan-1-yl}-4-methylpyridine-3-carboxamide] | > 2000
29 | Cc1ncc(-c2ncc(C(=O)NC34CC(NC(=O)COc5ccc(Cl)c(F)c5)(C3)C4)o2)cn1 [Compound 109, N-{3-[2-(4-chloro-3-fluorophenoxy)acetamido]bicyclo[1.1.1]pentan-1-yl}-2-(2-methylpyrimidin-5-yl)-1,3-oxazole-5-carboxamide] | 250 to 1000
30 | O=C(COc1ccc(C(F)(F)F)nc1)NC12CC(Nc3ccnc4cc(Cl)ccc34)(C1)C2 [Compound 385, N-{3-[(7-chloroquinolin-4-yl)amino]bicyclo[1.1.1]pentan-1-yl}-2-{[6-(trifluoromethyl)pyridin-3-yl]oxy}acetamide] | 250 to 1000
31 | O=C(COc1ccc(Cl)c(Cl)c1)NC12CC(NC(=O)c3cnccn3)(C1)C2 [Compound 164, N-{3-[2-(3,4-dichlorophenoxy)acetamido]bicyclo[1.1.1]pentan-1-yl}pyrazine-2-carboxamide] | 50 to 250
32 | Cc1cc(C(=O)NC23CC(NC(=O)COc4ccc(Cl)c(F)c4)(C2)C3)nn1-c1ccc(Cl)cc1 [Compound 112, N-{3-[2-(4-chloro-3-fluorophenoxy)acetamido]bicyclo[1.1.1]pentan-1-yl}-1-(4-chlorophenyl)-5-methyl-1H-pyrazole-3-carboxamide] | 250 to 1000
33 | Cn1cc(-c2cc(C(=O)NC34CCC(NC(=O)COc5ccc(Cl)c(F)c5)(CC3)C(O)C4)on2)cn1 (stereo not drawn) [Compound 633, N-{4-[2-(4-chloro-3-fluorophenoxy)acetamido]-3-hydroxybicyclo[2.2.2]octan-1-yl}-3-(1-methyl-1H-pyrazol-4-yl)-1,2-oxazole-5-carboxamide] | 50 to 250
